Data: patent publication US11160790B2, “Method of inhibiting Cryptococcus growth using eltrombopag” (priority 2019, dated 2021)

Key:
Type in all cases: cell-based, Cryptococcus neoformans
[1] = system: C. neoformans H99; test: Disk diffusion susceptibility assay; conditions: 10 μg per disk; 25° C., 30° C. or 37° C., 48 hours
Method: A disk diffusion susceptibility assay was performed to further investigate the fungistatic activity of eltrombopag at different temperatures. Briefly, C. neoformans […] or C. deuterogattii 8265 was cultured overnight at 30° C., and 100 μL of the culture (at an OD600 of about 0.1) was spread on RPMI 1640 agar plates. Paper disks (with a diameter of 6 mm) were then placed on these agar plates, and either 10 μg eltrombopag (dissolved in 5 μL DMSO) or 5 μL DMSO (control) was added to each disk. The agar plates were incubated at 25° C., 30° C., or 37° C. for 48 hours and photographed.

[2] = system: C. neoformans H99; test: XTT-reduction assay of biofilm metabolic activity
Method: Cryptococcus biofilms, which are composed of Cryptococcus cells and extracellular matrix, enhance the tolerance of Cryptococcus to antifungal agents (such as amphotericin B) and host defense mechanisms. To assess whether eltrombopag impacts biofilm formation in Cryptococcus, an XTT-reduction assay was used to measure the metabolic activity of C. neoformans cells treated with eltrombopag at 37° C. Briefly, C. neoformans […] cells were cultured in YPD medium at 30° C. overnight. The cells were washed twice with phosphate buffered saline (PBS) and resuspended in RPMI 1640 medium with or without eltrombopag at the indicated concentrations. The cell suspension (0.0005 OD600/mL) was added to a 96-well polystyrene plate and incubated at 37° C. for 24 or 48 hours. […] After incubation, the cells were washed three times with PBS and subjected to XTT reduction assay to quantify formazan formation by measuring the light absorbance at 492 nm. The experiments were performed in triplicate, and the results were presented as mean±standard deviation. Statistical significance for the data sets was determined using a two-tailed t test.

[3] = system: C. neoformans H99; test: Checkerboard titration assay; conditions: 30° C., 48 hours
Method: Amphotericin B plus 5-flucytosine or fluconazole are combinations often used to treat cryptococcal meningitis. To investigate the synergy between eltrombopag and existing antifungal drugs or other drugs, a checkerboard titration assay was performed on Cryptococcus. Briefly, C. neoformans […] and C. deuterogattii […] cells were cultured overnight at 30° C. and then washed twice with double-distilled water. The cells were diluted to 10^3 cfu/mL with RPMI 1640 medium, and 100 μL of the cell suspension was added to each well of a 96-well polystyrene plate. […] After incubation at 30° C. for 48 hours, the growth of cells under different treatments was assessed by measuring the light absorbance at 600 nm (OD600). This assay allows the determination of fractional inhibitory concentration index (FICI): (MICcombined of drug A/MICalone of drug A)+(MICcombined of drug B/MICalone of drug B). After the checkerboard titration assay, the cells (3 μL) in the 96-well plate were transferred to drug-free YPD agar plates. After incubation at 30° C. for 48 hours, the agar plates were photographed and assessed for cell viability.

SMILES: CC1=NN(c2ccc(C)c(C)c2)C(=O)/C1=N\Nc1cccc(-c2cccc(C(=O)O)c2)c1O [eltrombopag]
- inhibition zones [1]: significantly larger inhibition zones were observed at 37 °C
- reduction of metabolic activity compared to the control group ([2]; 0.125 mg/L, 37° C., 24 hours): more than 70%
- biofilm formation (metabolic activity, OD492) ([2]; two-fold serially diluted from 4 to 0.015 mg/L, 48 hours): inhibited the formation of C. neoformans biofilms in a dose-dependent manner
- MICalone [3]: 0.25 mg/L
- MICcombined of ETP ([3]; ETP in combination with AMB): 0.03 mg/L
- MICcombined of ETP ([3]; ETP in combination with CsA): 0.25 mg/L
- MICcombined of ETP ([3]; ETP in combination with FK506): 0.015 mg/L
- MICcombined of ETP ([3]; ETP in combination with FLC): 0.03 mg/L
